Measured values taken from publication PMC8429728, “TNK1 is a ubiquitin-binding and 14-3-3-regulated kinase that can be targeted to block tumor growth” (Nature Communications, 2021).
Read-outs that look alike come from different tables or passages of the source.

Columns and labels:
Test in all cases: biochemical
Set-up in all cases: Reaction Biology 371-kinase panel at Km ATP, per cent enzyme activity relative to DMSO, single dose in duplicate
[1] = biological target: CDK3/cyclin E2 (Homo sapiens, UniProt Q00526); details: duplicate measurements, Km ATP
Outline: (§1)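 First, kinases from a 371-member panel were exposed in vitro to 300 nM inhibitor. Next, % enzyme activity versus DMSO was computed. Finally, IC50s were derived by sigmoidal dose-response fitting with variable slope and a zero bottom constraint.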

[2] = biological target: CDK9/cyclin T2 (Homo sapiens, UniProt P50750); details: duplicate measurements, Km ATP
Outline: as §1

[3] = biological target: T1, JNK1 (Homo sapiens, UniProt P45983); details: duplicate measurements, Km ATP; read-out: % Enzyme Activity (relative to DMSO controls) / TP-0005801 (0.3µM) / Data 1
T1 construct: gene MAPK8
Outline: as §1

[4] = biological target: MST2/STK3 (Homo sapiens, UniProt Q13188); details: duplicate measurements, Km ATP
Outline: as §1

[5] = biological target: ALK4/ACVR1B (Homo sapiens, UniProt P36896); details: duplicate measurements, Km ATP
Outline: as §1

[6] = biological target: T2, DCAMKL1 (Homo sapiens, UniProt O15075); details: duplicate measurements, Km ATP
T2 construct: gene DCLK1
Outline: as §1

[7] = biological target: c-Src (Homo sapiens, UniProt P12931); details: duplicate measurements, Km ATP
Outline: as §1

[8] = biological target: KHS/MAP4K5 (Homo sapiens, UniProt Q9Y4K4); details: duplicate measurements, Km ATP
Outline: as §1

[9] = biological target: MYO3b (Homo sapiens, UniProt Q8WXR4); details: duplicate measurements, Km ATP
Outline: as §1

[10] = biological target: PDGFRa (Homo sapiens, UniProt P16234); details: duplicate measurements, Km ATP
Outline: as §1

[11] = biological target: EPHA3 (Homo sapiens, UniProt P29320); details: duplicate measurements, Km ATP
Outline: as §1

[12] = biological target: T3, BRK (Homo sapiens, UniProt Q13882); details: duplicate measurements, Km ATP
T3 construct: gene PTK6
Outline: as §1

[13] = biological target: EPHA4 (Homo sapiens, UniProt P54764); details: duplicate measurements, Km ATP
Outline: as §1

[14] = biological target: ROS/ROS1 (Homo sapiens, UniProt P08922); details: duplicate measurements, Km ATP
Outline: as §1

[15] = biological target: MLCK/MYLK (Homo sapiens, UniProt Q15746); details: duplicate measurements, Km ATP
Outline: as §1

[16] = biological target: MST1/STK4 (Homo sapiens, UniProt Q13043); details: duplicate measurements, Km ATP
Outline: as §1

[17] = biological target: MLK2/MAP3K10 (Homo sapiens, UniProt Q02779); details: duplicate measurements, Km ATP
Outline: as §1

[18] = biological target: T4, PKAcg (Homo sapiens, UniProt P22612); details: duplicate measurements, Km ATP
T4 construct: gene PRKACG
Outline: as §1

[19] = biological target: ROCK1 (Homo sapiens, UniProt Q13464); details: duplicate measurements, Km ATP
Outline: as §1

[20] = biological target: PIM3 (Homo sapiens, UniProt Q86V86); details: duplicate measurements, Km ATP
Outline: as §1

[21] = read-out: % Enzyme Activity (relative to DMSO controls) / TP-0005801 (0.3µM) / Data 1
[22] = read-out: % Enzyme Activity (relative to DMSO controls) / TP-0005801 (0.3µM) / Data 2

Sequence of MLK2/MAP3K10 (Q02779 whole entry): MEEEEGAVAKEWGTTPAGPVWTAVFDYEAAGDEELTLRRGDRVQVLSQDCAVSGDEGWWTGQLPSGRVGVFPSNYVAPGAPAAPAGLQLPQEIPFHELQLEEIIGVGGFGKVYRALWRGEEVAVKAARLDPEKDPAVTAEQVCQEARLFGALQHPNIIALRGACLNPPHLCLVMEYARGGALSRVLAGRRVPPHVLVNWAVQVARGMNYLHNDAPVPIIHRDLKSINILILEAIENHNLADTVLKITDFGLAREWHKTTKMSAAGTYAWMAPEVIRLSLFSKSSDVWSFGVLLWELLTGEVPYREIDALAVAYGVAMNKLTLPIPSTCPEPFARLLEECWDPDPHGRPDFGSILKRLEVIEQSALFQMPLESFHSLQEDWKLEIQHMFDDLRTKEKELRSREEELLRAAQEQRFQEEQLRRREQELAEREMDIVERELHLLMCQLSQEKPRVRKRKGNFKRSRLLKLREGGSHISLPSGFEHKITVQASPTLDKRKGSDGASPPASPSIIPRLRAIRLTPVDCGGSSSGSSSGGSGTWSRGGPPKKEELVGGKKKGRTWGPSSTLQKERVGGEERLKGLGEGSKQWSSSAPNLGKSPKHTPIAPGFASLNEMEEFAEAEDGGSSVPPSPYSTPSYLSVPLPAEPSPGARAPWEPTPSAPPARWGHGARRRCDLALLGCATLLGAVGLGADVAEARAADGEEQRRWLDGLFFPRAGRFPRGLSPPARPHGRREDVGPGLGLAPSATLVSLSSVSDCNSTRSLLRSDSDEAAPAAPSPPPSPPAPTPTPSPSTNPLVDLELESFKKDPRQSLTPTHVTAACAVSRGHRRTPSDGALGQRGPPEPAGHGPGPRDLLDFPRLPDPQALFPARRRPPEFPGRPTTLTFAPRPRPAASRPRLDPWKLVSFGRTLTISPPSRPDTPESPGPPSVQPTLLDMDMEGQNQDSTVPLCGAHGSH
T4 sequence (P22612 whole entry): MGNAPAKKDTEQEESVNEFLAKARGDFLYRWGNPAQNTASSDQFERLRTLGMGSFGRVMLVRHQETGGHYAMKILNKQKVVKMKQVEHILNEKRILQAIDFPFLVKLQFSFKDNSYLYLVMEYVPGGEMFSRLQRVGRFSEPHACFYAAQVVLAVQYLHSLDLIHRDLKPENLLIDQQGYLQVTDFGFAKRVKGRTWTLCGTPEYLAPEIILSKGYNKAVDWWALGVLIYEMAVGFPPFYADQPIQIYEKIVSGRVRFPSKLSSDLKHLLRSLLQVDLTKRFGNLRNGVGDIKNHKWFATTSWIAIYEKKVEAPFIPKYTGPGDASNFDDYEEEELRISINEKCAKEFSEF
Sequence of MST1/STK4 (Q13043 whole entry): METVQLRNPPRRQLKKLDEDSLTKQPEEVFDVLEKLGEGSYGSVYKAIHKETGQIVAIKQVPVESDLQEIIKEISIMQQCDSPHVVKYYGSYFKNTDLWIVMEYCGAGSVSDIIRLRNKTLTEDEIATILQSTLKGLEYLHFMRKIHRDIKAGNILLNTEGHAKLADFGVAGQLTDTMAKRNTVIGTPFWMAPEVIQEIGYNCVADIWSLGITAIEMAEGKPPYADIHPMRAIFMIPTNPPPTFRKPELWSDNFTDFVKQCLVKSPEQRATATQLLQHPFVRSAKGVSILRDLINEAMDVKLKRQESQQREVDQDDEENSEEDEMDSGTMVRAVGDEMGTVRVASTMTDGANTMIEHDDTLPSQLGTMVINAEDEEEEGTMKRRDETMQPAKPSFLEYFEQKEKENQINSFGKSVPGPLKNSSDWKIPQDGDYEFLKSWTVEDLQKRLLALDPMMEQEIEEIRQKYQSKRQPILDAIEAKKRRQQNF
Sequence of CDK9/cyclin T2 (P50750 whole entry): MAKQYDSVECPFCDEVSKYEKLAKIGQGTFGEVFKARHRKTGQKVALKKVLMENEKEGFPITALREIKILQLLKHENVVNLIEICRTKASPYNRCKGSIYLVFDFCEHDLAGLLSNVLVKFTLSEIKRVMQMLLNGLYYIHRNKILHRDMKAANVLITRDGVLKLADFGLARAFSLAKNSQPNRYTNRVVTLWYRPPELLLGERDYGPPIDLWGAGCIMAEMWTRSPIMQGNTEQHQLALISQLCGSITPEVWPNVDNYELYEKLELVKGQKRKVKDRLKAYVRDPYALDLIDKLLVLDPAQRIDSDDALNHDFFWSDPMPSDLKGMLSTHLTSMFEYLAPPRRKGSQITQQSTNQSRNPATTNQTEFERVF
Sequence of CDK9/cyclin T2 (O60583 whole entry partner): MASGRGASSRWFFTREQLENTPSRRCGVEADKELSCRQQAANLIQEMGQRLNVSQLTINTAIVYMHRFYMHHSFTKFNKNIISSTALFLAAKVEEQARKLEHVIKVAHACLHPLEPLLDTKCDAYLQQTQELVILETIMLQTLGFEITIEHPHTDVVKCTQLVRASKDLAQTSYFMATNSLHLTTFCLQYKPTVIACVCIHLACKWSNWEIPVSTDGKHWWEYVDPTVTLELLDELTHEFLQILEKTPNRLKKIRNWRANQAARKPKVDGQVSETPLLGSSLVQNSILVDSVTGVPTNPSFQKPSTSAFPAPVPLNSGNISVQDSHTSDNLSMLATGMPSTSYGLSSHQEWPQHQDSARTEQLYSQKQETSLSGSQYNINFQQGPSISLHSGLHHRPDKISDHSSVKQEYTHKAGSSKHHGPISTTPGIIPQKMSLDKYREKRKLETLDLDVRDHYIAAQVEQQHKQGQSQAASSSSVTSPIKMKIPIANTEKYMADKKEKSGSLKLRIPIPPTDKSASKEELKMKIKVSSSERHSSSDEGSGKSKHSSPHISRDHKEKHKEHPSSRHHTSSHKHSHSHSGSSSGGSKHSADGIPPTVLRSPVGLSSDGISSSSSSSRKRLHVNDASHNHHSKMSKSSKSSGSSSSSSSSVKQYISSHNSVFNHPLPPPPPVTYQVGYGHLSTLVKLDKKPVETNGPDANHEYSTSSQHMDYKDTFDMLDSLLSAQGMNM
Sequence of PDGFRa (P16234 whole entry): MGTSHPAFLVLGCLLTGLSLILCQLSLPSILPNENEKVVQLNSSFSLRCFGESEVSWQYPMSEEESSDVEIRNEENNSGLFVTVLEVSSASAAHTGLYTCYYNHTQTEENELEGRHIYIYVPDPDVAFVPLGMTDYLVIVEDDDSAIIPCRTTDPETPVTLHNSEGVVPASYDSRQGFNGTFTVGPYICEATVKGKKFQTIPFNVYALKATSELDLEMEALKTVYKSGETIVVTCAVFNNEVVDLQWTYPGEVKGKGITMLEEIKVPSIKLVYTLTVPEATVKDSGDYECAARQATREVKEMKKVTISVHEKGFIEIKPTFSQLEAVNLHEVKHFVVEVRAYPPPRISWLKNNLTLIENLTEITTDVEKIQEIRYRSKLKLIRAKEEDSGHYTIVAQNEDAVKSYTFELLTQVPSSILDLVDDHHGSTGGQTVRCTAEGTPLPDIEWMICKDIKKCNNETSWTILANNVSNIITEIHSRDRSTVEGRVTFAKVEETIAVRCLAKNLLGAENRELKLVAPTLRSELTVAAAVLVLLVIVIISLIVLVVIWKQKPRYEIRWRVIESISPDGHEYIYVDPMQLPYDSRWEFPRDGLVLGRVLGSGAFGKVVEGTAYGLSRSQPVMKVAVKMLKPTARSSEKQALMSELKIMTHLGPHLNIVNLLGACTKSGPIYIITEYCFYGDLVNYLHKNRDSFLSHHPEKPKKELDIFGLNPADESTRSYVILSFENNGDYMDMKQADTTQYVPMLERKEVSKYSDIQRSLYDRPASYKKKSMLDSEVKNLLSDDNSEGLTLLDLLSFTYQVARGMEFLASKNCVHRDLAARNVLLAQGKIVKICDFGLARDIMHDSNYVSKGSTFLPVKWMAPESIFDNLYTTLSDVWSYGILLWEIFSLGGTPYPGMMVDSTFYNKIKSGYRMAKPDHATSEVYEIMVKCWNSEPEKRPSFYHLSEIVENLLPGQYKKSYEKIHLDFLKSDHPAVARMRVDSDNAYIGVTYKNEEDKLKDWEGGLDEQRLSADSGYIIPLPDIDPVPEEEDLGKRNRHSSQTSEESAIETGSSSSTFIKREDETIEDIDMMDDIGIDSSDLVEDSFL
T3 sequence (Q13882 whole entry): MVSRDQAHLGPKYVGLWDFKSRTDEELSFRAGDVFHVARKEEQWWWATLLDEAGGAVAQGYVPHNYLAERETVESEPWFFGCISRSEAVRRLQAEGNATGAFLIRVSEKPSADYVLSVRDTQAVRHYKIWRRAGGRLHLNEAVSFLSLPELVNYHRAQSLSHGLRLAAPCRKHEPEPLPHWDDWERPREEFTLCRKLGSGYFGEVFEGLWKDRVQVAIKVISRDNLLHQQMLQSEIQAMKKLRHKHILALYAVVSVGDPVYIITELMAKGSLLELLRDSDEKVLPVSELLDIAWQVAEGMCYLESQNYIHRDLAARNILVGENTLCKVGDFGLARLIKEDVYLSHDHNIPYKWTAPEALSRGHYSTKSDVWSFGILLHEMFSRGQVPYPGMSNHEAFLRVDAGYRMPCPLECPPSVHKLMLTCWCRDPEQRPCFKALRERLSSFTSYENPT
Sequence of ALK4/ACVR1B (P36896 whole entry): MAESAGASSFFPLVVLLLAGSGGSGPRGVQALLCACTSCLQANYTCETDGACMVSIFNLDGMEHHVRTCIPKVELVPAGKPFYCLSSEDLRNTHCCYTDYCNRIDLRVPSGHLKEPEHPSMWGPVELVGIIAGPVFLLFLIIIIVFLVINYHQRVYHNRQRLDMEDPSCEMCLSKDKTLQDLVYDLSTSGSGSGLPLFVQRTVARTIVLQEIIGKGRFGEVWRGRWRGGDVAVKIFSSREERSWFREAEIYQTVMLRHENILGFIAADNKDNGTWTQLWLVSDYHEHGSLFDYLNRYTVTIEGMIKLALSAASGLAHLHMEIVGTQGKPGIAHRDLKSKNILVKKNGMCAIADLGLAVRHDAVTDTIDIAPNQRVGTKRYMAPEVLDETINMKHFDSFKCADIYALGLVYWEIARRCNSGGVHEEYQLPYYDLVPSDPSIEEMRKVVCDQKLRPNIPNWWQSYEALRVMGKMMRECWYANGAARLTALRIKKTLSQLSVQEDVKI

Question: With `COc1cc(N2CCN(C)CC2)c(C)cc1Nc1ncc(Br)c(Nc2cccnc2N(C)C)n1` [TP-5801] as the compound, how does the remaining activity at 0.3 µM [1, 21] read?
Answer: 95.5%

Question: What about the remaining activity at 0.3 µM [1, 22] of the same compound?
Answer: 95.1%

Question: And the remaining activity at 0.3 µM [2, 21]?
Answer: 89.2%

Question: What about the remaining activity at 0.3 µM [2, 22] of the same compound?
Answer: 88.6%

Question: What about the remaining activity at 0.3 µM [3] of the same compound?
Answer: 74.7%

Question: And the remaining activity at 0.3 µM [4, 21]?
Answer: 97.7%

Question: And the remaining activity at 0.3 µM [4, 22]?
Answer: 97.5%

Question: And the remaining activity at 0.3 µM [5, 21]?
Answer: 86.9%

Question: What about the remaining activity at 0.3 µM [5, 22] of the same compound?
Answer: 85%

Question: And the remaining activity at 0.3 µM [6, 21]?
Answer: 94.9%

Question: What about the remaining activity at 0.3 µM [6, 22] of the same compound?
Answer: 93.4%

Question: What about the remaining activity at 0.3 µM [7, 21] of the same compound?
Answer: 107%

Question: What about the remaining activity at 0.3 µM [7, 22] of the same compound?
Answer: 106%

Question: What about the remaining activity at 0.3 µM [8, 21] of the same compound?
Answer: 90%

Question: And the remaining activity at 0.3 µM [8, 22]?
Answer: 87%

Question: And the remaining activity at 0.3 µM [9, 21]?
Answer: 57.7%

Question: And the remaining activity at 0.3 µM [9, 22]?
Answer: 56.8%

Question: What about the remaining activity at 0.3 µM [10, 21] of the same compound?
Answer: 84.6%

Question: What about the remaining activity at 0.3 µM [10, 22] of the same compound?
Answer: 84.5%

Question: And the remaining activity at 0.3 µM [11, 21]?
Answer: 103%

Question: And the remaining activity at 0.3 µM [11, 22]?
Answer: 97.5%

Question: And the remaining activity at 0.3 µM [12, 21]?
Answer: 78%

Question: And the remaining activity at 0.3 µM [12, 22]?
Answer: 76.5%

Question: What about the remaining activity at 0.3 µM [13, 21] of the same compound?
Answer: 98.9%

Question: What about the remaining activity at 0.3 µM [13, 22] of the same compound?
Answer: 98.5%

Question: And the remaining activity at 0.3 µM [14, 21]?
Answer: 10.1%

Question: And the remaining activity at 0.3 µM [14, 22]?
Answer: 9.96%

Question: What about the remaining activity at 0.3 µM [15, 21] of the same compound?
Answer: 93.8%

Question: What about the remaining activity at 0.3 µM [15, 22] of the same compound?
Answer: 90.8%

Question: What about the remaining activity at 0.3 µM [16, 21] of the same compound?
Answer: 101%

Question: What about the remaining activity at 0.3 µM [16, 22] of the same compound?
Answer: 97.2%

Question: What about the remaining activity at 0.3 µM [17, 21] of the same compound?
Answer: 87%

Question: And the remaining activity at 0.3 µM [17, 22]?
Answer: 85.9%

Question: And the remaining activity at 0.3 µM [18, 21]?
Answer: 95.5%

Question: And the remaining activity at 0.3 µM [18, 22]?
Answer: 92.1%

Question: What about the remaining activity at 0.3 µM [19, 21] of the same compound?
Answer: 99.8%

Question: And the remaining activity at 0.3 µM [19, 22]?
Answer: 96.7%

Question: And the remaining activity at 0.3 µM [20, 21]?
Answer: 96%

Question: What about the remaining activity at 0.3 µM [20, 22] of the same compound?
Answer: 95.5%
